Measured values taken from PMC4071583, “Potent Cytotoxic Peptides from the Australian Marine Sponge Pipestela candelabra” (Marine Drugs, 2014).
Like-named read-outs stand apart in the source and are kept apart here.

Assays:
[1] = test system: human neonatal foreskin fibroblast (noncancer cells, NFF); experiment: Cytotoxicity assay (Alamar blue), human neonatal foreskin fibroblast non-cancer cells NFF; type: cell-based; conditions: for IC50: read-out: IC50 NFF
Method: (§1) Human prostate adenocarcinoma cells (PC3) and human neonatal foreskin fibroblast (noncancer cells, NFF) were grown in media RPMI-1640 (Life Technologies, Grand Island, NY, USA) supplemented with 10% foetal bovine serum (FBS). Cells were grown under 5% CO2 in a humidified environment at 37°C. Fifty microlitres of media containing 500 cells were added to a 384 well microtitre plate (Perkin Elmer, Waltham, MA, USA, part number: 6007660) containing 0.2 μL of a compound. Final compound concentration range tested was 10 μM to 1 pM (final DMSO concentration of 0.4%). Each concentration in media was tested in triplicate and in two independent experiments. Cells and compounds were then incubated in 72 h at 37 °C, 5% CO2 and 80% humidity. Cell proliferation was measured with the addition of 10 μL of a 60% Alamar blue (Invitrogen, Carlsbad, CA, USA) solution in media to each well of the microtitre plate to give a final concentration of 10% Alamar blue. The plates were incubated at 37 °C, 5% CO2 and 80% humidity within 24 h. The fluorescence of each well was read at excitation 535 nm and emission 590 nm on the Perkin Elmer EnVision Multilabel Reader 2104. Eight-point concentration response curves were then analysed using non-linear regression and IC50 values determined by using GraphPad Prism 5 (GraphPad Software Inc., La Jolla, CA, USA). Paclitaxel and doxorubicin were used during each screening as positive control compounds.

[2] = test system: Human prostate adenocarcinoma cells (PC3); experiment: Cytotoxicity assay (Alamar blue), human prostate cancer cells PC3; type: cell-based; conditions: for IC50: Homo sapiens, read-out: IC50 PC3
Method: as §1

[3] = set-up: method as in PMID 15547903; conditions: cited from earlier work
[4] = Auto-oxidation on storage, LC/MS analysis; type: physicochemical; conditions: dried compound stored at room temperature for a few months
Source text: We noticed that the dried milnamides A (5) and E (1) changed from white powders to yellow powders when the compounds were stored at room temperature for a few months. […] As in the previous study, we are unable to determine if milnamides A (5) and E (1) are naturally occurring or produced by auto-oxidation.

[5] = test system: murine leukemia L1210 cell line; set-up: method as in doi:10.1016/0040-4039(90)87015-R; conditions: cited from earlier work
[6] = test system: advanced solid tumors; set-up: method as in PMID 19096380; conditions: cited from earlier work
[7] = test system: human xenograft cancer models; set-up: method as in PMID 19825803; conditions: many human xenograft cancer models; cited from earlier work
[8] = NFF cells, 72 h incubation, Alamar blue, mean of two independent experiments in triplicate
[9] = PC-3, PC3 cells, 72 h incubation, Alamar blue, mean of two independent experiments in triplicate

Structure (SMILES) | IC50 ([1]; NFF, 72 h) [nM] | IC50 ([2]; PC-3, 72 h) [nM] | also measured
C/C(=C\[C@H](C(C)C)N(C)C(=O)[C@@H](NC(=O)[C@H]1N(C)Cc2c(c3ccccc3n2C)C1(C)C)C(C)(C)C)C(=O)O [Compound 5, milnamide A] | 70.6 | 11 | fold more potent than milnamide C (6) ([2]; PC3 cells, comparator 6): 3 fold; fold more potent than milnamide C (7) ([2]; PC3 cells, comparator 7): 35 fold; auto-oxidation while standing in chloroform [3]: auto-oxidized slowly to milamide D (7); milnamide D (7) or G (3) formed by auto-oxidation (LC/MS) [4]: 5%–10%
COc1cccc2c1C(=O)c1c(O)c3c(c(O)c1C2=O)C[C@@](O)(C(=O)CO)C[C@@H]3O[C@H]1C[C@H](N)[C@H](O)[C@H](C)O1 [Doxorubicin, doxorubicin, reference compound] |  |  | IC50 [1, 8]: 530 nM; IC50 [2, 9]: 359 nM
CNC(C(=O)NC(C(=O)N(C)C(C=C(C)C(=O)O)C(C)C)C(C)(C)C)C(C)(C)c1cn(C(O)C(=O)NC(C(=O)N(C)C(C=C(C)C(=O)O)C(C)C)C(C)(C)C)c2ccccc12 (stereo not shown) [Compound 4, hemiasterlin D] | 8.16 | 2.2 | 
CC(=CC(C(C)C)N(C)C(=O)C(NC(=O)C1N(C)Cc2[nH]c3ccccc3c2C1(C)C)C(C)(C)C)C(=O)O (stereo not shown) [Compound 1, milnamide E] | 123 | 34.2 | milnamide D (7) or G (3) formed by auto-oxidation (LC/MS) [4]: 5%–10%
C/C(=C\[C@H](C(C)C)N(C)C(=O)[C@@H](NC(=O)[C@H]1N(C)C(=O)c2c(c3ccccc3n2C)C1(C)C)C(C)(C)C)C(=O)O [Compound 6, milnamide C] | 188 | 31.7 | 
CN[C@H](C(=O)N[C@H](C(=O)N(C)[C@H](/C=C(\C)C(=O)O)C(C)C)C(C)(C)C)C(C)(C)c1cn(C)c2ccccc12 [Compound 8, hemiasterlin] | 0.404 | 0.0484 | fold more cytotoxic than hemiasterlin A (9) ([2]; comparator 9): six-fold
C/C1=C\[C@@H](C)C[C@@H](C)OC(=O)[C@@H](C)NC(=O)[C@H](Cc2ccc(O)c(Cl)c2)N(C)C(=O)CNC(=O)[C@H](C)C1 [Compound 12, geodiamolide F] | 708 | 155 | IC50 [5]: 11.2 nM
CN[C@H](C(=O)N[C@H](C(=O)N(C)[C@H](/C=C(\C)C(=O)O)C(C)C)C(C)(C)C)C(C)(C)c1ccccc1 [HTI-286] |  |  | common toxicities observed [6]: neutropaenia, nausea, alopecia, and pain; objective responses ([6]; phase II trial halted): no objective responses
C/C(=C\[C@H](C(C)C)N(C)C(=O)[C@@H](NC(=O)[C@H]1CCCCN1C(C)C)C(C)(C)C)C(=O)O [Compound E7974] |  |  | in vivo antitumor efficacy [7]: strong in vivo antitumor efficacy
C/C1=C\[C@@H](C)C[C@@H](C)OC(=O)[C@@H](C)NC(=O)[C@H](Cc2ccc(O)c(Br)c2)N(C)C(=O)CNC(=O)[C@H](C)C1 [Compound 11, geodiamolide E] | 425 | 118 | IC50 [5]: 24.2 nM
CC(=CC(C(C)C)N(C)C(=O)C(NC(=O)C1[N+](C)=Cc2[nH]c3ccccc3c2C1(C)C)C(C)(C)C)C(=O)O (stereo not shown) [Compound 3, milnamide G] |  | 2870 | inhibition at 10 µM ([1]; NFF, read-out: % Inhibition NFF): 39%
CC(=CC(C(C)C)N(C)C(=O)C(NC(=O)C1N(C)C(=O)c2[nH]c3ccccc3c2C1(C)C)C(C)(C)C)C(=O)O (stereo not shown) [Compound 2, milnamide F] | 5650 | 2180 | 
C/C(=C\[C@H](C(C)C)N(C)C(=O)[C@@H](NC(=O)[C@H]1[N+](C)=Cc2c(c3ccccc3n2C)C1(C)C)C(C)(C)C)C(=O)O [Compound 7, milnamide D] | 1190 | 381 | 
C/C1=C\[C@@H](C)C[C@@H](C)OC(=O)[C@@H](C)NC(=O)[C@H](Cc2ccc(O)c(I)c2)N(C)C(=O)CNC(=O)[C@H](C)C1 [Compound 10, geodiamolide D] | 99.1 | 33.1 | fold more potent than geodiamolide E (11) ([2]; PC3 cells, comparator 11): 4 fold; fold more active than geodiamolide F (12) ([2]; PC3 cells, comparator 12): 5 fold; IC50 [5]: 62.2 nM
CC(=O)O[C@H]1C(=O)[C@@]2(C)[C@H]([C@H](OC(=O)c3ccccc3)[C@]3(O)C[C@H](OC(=O)[C@H](O)[C@@H](NC(=O)c4ccccc4)c4ccccc4)C(C)=C1C3(C)C)[C@]1(OC(C)=O)CO[C@@H]1C[C@@H]2O [Taxol, Paclitaxel, reference compound] |  |  | IC50 [1, 8]: 3.94 nM; IC50 [2, 9]: 2.26 nM
